Source: EP0369657A2, “Chromogenic substrate for esterase and immunoassay using same” (Becton Dickinson and Company, priority 1988, dated 1990)

Test system: rabbit liver esterase (RLE)
Assay: Stopping of DCIPB color formation in the dual enzyme assay for Influenza A
Type: biochemical
Conditions: added after five minute incubation with DCIPB; TFAP as 40 µL of 1 mM in 50 mM Tris, pH 7.5; read at 620 nm
Experimental: A mixture of the blocked inhibitor from Example II (1 x 10⁻⁴M) and rabbit liver esterase (RLE) (5 x 10⁻⁹M) in 50 mM diethanolamine (DEOA), pH 9.0 was added to each well (150 µL), and incubated at room temperature for 20 minutes.
A solution of DCIPB (0.35 mM in 50 mM Tris, pH 7.5, containing 20% methanol) was added to each well (150 µL). After a five minute incubation, 40 µL of a solution of 1 mM 1,1,1-trifluoroacetophenone (TFAP) in 50 mM Tris, pH 7.5, was added to stop the reaction.
The same effect was achieved by the addition of free inhibitor (product B from Example II). After "stopping," test wells having a high concentration of antigen remained colorless for several hours.

O=C(c1ccccc1)C(F)(F)F [1,1,1-trifluoroacetophenone (TFAP), 1,1,1-trifluoroacetophenone]
effect on color formation process: stopped the color formation process

O=C(CCc1ccc(O)cc1)C(F)(F)F [compound 3, 1,1,1-trifluoro-4-(4-hydroxyphenyl)-2-butanone]
effect on color formation process: same effect
